These results are taken from patent publication US10336762B2 (priority 2017, dated 2019).

For one test, the system named is TNFα. Nature of the test: cells. In kind it is cell-based, human. The conditions noted are these: Homo sapiens, Monocyte, LPS-stimulated human monocytes, TNFα content; read-out: EC50 TNF.
For the next test, the target named is IRAK4 enzyme (Homo sapiens (Human), UniProt Q9NWZ3). As to the kind of experiment: biochemical. In kind it is biochemical. The conditions noted are these: IRAK4 enzyme, TR-FRET, 500 μM ATP.
Chain of IRAK4 enzyme (Q9NWZ3 whole entry): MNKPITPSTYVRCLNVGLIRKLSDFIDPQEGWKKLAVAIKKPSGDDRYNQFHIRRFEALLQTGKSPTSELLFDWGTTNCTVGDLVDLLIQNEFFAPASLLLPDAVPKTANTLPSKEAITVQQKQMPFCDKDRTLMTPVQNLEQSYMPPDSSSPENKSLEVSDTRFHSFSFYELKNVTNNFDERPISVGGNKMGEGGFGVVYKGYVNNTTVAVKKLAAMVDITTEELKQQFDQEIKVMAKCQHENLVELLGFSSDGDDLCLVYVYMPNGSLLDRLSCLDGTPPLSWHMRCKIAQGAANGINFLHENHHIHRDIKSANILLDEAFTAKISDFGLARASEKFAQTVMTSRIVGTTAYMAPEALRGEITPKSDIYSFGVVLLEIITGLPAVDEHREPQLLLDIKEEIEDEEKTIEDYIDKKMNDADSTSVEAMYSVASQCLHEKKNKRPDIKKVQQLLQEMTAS

As for `CC(C)Nc1cc(-c2ccc3cc(C#N)cnn23)ncc1C(=O)NC1CC2(CC(=O)C2)C1` [Example 152, 6-(3-cyanopyrrolo[1,2-b]pyridazin-7-yl)-4-(isopropylamino)-N-(6-oxospiro[3.3]heptan-2-yl)nicotinamide], in the test on TNFα, the EC50 (usually the concentration that produces a half-maximal response) was found to be 191 nM. The IC50 – broadly, the concentration needed to halve the response being measured – on IRAK4 enzyme was determined as 2 nM.

Take `CC(C)Nc1cc(-c2ccc3cc(C#N)cnn23)ncc1C(=O)NC1CC2(C1)CC(C)(O)C2` (stereo not shown) [Example 153, 6-(3-cyanopyrrolo[1,2-b]pyridazin-7-yl)-N-(6-hydroxy-6-methylspiro[3.3]heptan-2-yl)-4-(isopropylamino)nicotinamide]: in the test with TNFα, the EC50 was found to be 91 nM. The IC50 against IRAK4 enzyme is < 1 nM.

On to `CC1(O)CCC(Nc2cc(-c3ccc4cc(C#N)cnn34)ncc2C(=O)NC[C@@H](F)C(C)(C)O)CC1` (stereo partly drawn) [Example 154, 6-(3-cyanopyrrolo[1,2-b]pyridazin-7-yl)-N-((R)-2-fluoro-3-hydroxy-3-methylbutyl)-4-(((1s,4S)-4-hydroxy-4-methyl-cyclohexyl)amino)nicotinamide], for which the EC50 in the test on TNFα was 34 nM. The 50% inhibitory concentration (IC50) on IRAK4 enzyme was < 1 nM.

Consider `CN1CCC(Nc2cc(-c3ccc4cc(C#N)cnn34)ncc2C(=O)NC[C@@H](F)C(C)(C)O)CC1=O` (stereo partly drawn) [Example 155, 6-(3-cyanopyrrolo[1,2-b]pyridazin-7-yl)-N-((R)-2-fluoro-3-hydroxy-3-methylbutyl)-4-((1-methyl-2-oxopiperidin-4-yl)amino) nicotinamide], for which the half-maximal effective concentration (EC50) with TNFα is 150 nM. The molecule further came in with an IC50 against IRAK4 enzyme of 1 nM.

For `CC(C)(O)[C@H](F)CNC(=O)c1cnc(-c2ccc3cc(C#N)cnn23)cc1NC1CCN(C(=O)c2ccoc2)CC1` [Example 156, (R)-6-(3-cyanopyrrolo[1,2-b]pyridazin-7-yl)-N-(2-fluoro-3-hydroxy-3-methylbutyl)-4-((1-(furan-3-carbonyl)piperidin-4-yl)amino)nicotinamide], the EC50 with TNFα came to 179 nM. For the same molecule, inhibition on IRAK4 enzyme was half-maximal at 4 nM (IC50).

With `CC(C)Nc1cc(-c2ccc3cc(C#N)cnn23)ncc1C(=O)NCc1ccc(=O)[nH]c1` [Example 157, 6-(3-cyanopyrrolo[1,2-b]pyridazin-7-yl)-4-(isopro-pylamino)-N-((6-oxo-1,6-dihydropyridin-3-yl)methyl) nicotinamide], the 50% effective concentration (EC50) in the test with TNFα came to 501 nM. The same molecule displayed a concentration for half-maximal inhibition (IC50) against IRAK4 enzyme of 23 nM.

In the case of `COC1(C)CN(C(=O)C23CCC(Nc4cc(-c5ccc6cc(C#N)cnn56)ncc4C(=O)NC[C@@H](F)C(C)(C)O)(CC2)CC3)C1` [Example 158, (R)-6-(3-cyanopyrrolo[1,2-b]pyridazin 7-yl)-N-(2-fluoro-3-hydroxy-3-methylbutyl)-4-((4-(3-methoxy-3-methylazetidine-1-carbonyl)bicyclo[2.2.2]octan-1-yl)amino)nicotinamide], the EC50 with TNFα was 99 nM. Further, the IC50 against IRAK4 enzyme came out at 2 nM.

As to `CC1(O)CN(C(=O)C23CCC(Nc4cc(-c5ccc6cc(C#N)cnn56)ncc4C(=O)NC[C@@H](F)C(C)(C)O)(CC2)CC3)C1` [Example 159, (R)-6-(3-cyanopyrrolo[1,2-b]pyridazin-7-yl)-N-(2-fluoro-3-hydroxy-3-methylbutyl)-4-((4-(3-hydroxy-3-methylazetidine-1-carbonyl)bicyclo[2.2.2]octan-1-yl)amino)nicotinamide], the EC50 in the test with TNFα amounted to 184 nM. This molecule also had a half-inhibitory concentration (IC50) against IRAK4 enzyme of 1 nM.

With `CC(C)(O)[C@H](F)CNC(=O)c1cnc(-c2ccc3cc(C#N)cnn23)cc1N[C@H]1C[C@H](OC(=O)NC2CC2)C1` [Example 160, (1R,3r)-3-((2-(3-cyano-pyrrolo[1,2-b]pyridazin-7-yl)-5-(((R)-2-fluoro-3-hydroxy-3-methylbutyl)carbamoyl)pyridin-4-yl)amino)cyclobutyl cyclopropylcarbamate], the EC50 with TNFα was > 10000 nM. The same molecule yielded a half-inhibitory concentration (IC50) on IRAK4 enzyme of 465 nM.

As to `CN(C)C(=O)O[C@H]1C[C@H](Nc2cc(-c3ccc4cc(C#N)cnn34)ncc2C(=O)NC[C@@H](F)C(C)(C)O)C1` [Example 161, (1R,3r)-3-((2-(3-cyano-pyrrolo[1,2-b]pyridazin-7-yl)-5-(((R)-2-fluoro-3-hydroxy-3-methylbutyl)carbamoyl)pyridin-4-yl)amino)cyclobutyl dimethylcarbamate], the EC50 in the test with TNFα is > 10000 nM. Moreover, the half-inhibitory concentration (IC50) on IRAK4 enzyme was found to be 1000 nM.

With `CNC(=O)O[C@H]1C[C@H](Nc2cc(-c3ccc4cc(C#N)cnn34)ncc2C(=O)NC[C@@H](F)C(C)(C)O)C1` [Example 162, (1R,3r)-3-((2-(3-cyano-pyrrolo[1,2-b]pyridazin-7-yl)-5-(((R)-2-fluoro-3-hydroxy-3-methylbutyl)carbamoyl)pyridin-4-yl)amino)cyclobutyl methylcarbamate], in the test with TNFα, the EC50 was > 10000 nM. This molecule also registered an IC50 at IRAK4 enzyme of 376 nM.

`CC(C)(O)[C@H](F)CNC(=O)c1cnc(-c2ccc3cc(C#N)cnn23)cc1N[C@H]1CC[C@H](OC(=O)NC2CC2)CC1` [Example 163, (1R,4r)-4-((2-(3-cyano-pyrrolo[1,2-b]pyridazin-7-yl)-5-(((R)-2-fluoro-3-hydroxy-3-methylbutyl)carbamoyl)pyridin-4-yl)amino)cyclohexyl cyclopropylcarbamate]: the EC50 in the test with TNFα was > 10000 nM. The IC50 against IRAK4 enzyme was found to be 90 nM.

As to `CN(C)C(=O)O[C@H]1CC[C@H](Nc2cc(-c3ccc4cc(C#N)cnn34)ncc2C(=O)NC[C@@H](F)C(C)(C)O)CC1` [Example 164, (1R,4r)-4-((2-(3-cyano-pyrrolo[1,2-b]pyridazin-7-yl)-5-(((R)-2-fluoro-3-hydroxy-3-methylbutyl)carbamoyl)pyridin-4-yl)amino)cyclohexyl dimethylcarbamate], the concentration giving a half-maximal response (EC50) in the test on TNFα came out at 9940 nM. At IRAK4 enzyme, this molecule had an IC50 of 132 nM.

`CNC(=O)O[C@H]1CC[C@H](Nc2cc(-c3ccc4cc(C#N)cnn34)ncc2C(=O)NC[C@@H](F)C(C)(C)O)CC1` [Example 165, (1R,4r)-4-((2-(3-cyano-pyrrolo[1,2-b]pyridazin-7-yl)-5-(((R)-2-fluoro-3-hydroxy-3-methylbutyl)carbamoyl)pyridin-4-yl)amino)cyclohexyl methylcarbamate]: the concentration giving a half-maximal response (EC50) with TNFα is > 10000 nM. On IRAK4 enzyme, this molecule returned an IC50 of 59 nM.

`CC(C)(O)[C@H](F)CNC(=O)c1cnc(-c2ccc3cc(C#N)cnn23)cc1N[C@H]1CC[C@@H](OC(=O)NC2CC2)CC1` [Example 166, (1S,4s)-4-((2-(3-cyano-pyrrolo[1,2-b]pyridazin-7-yl)-5-(((R)-2-fluoro-3-hydroxy-3-methylbutyl)carbamoyl)pyridin-4-yl)amino)cyclohexyl cyclopropylcarbamate]: in the test with TNFα, the half-maximal effective concentration (EC50) was > 10000 nM. In addition, the midpoint of inhibition at IRAK4 enzyme, the IC50, lay at 741 nM.

With `CN(C)C(=O)O[C@H]1CC[C@@H](Nc2cc(-c3ccc4cc(C#N)cnn34)ncc2C(=O)NC[C@@H](F)C(C)(C)O)CC1` [Example 167, (1S,4s)-4-((2-(3-cyano-pyrrolo[1,2-b]pyridazin-7-yl)-5-(((R)-2-fluoro-3-hydroxy-3-methylbutyl)carbamoyl)pyridin-4-yl)amino)cyclohexyl dimethylcarbamate], the EC50 in the test on TNFα is > 10000 nM. For the same molecule, the concentration for half-maximal inhibition (IC50) on IRAK4 enzyme is 1000 nM.

Consider `CNC(=O)O[C@H]1CC[C@@H](Nc2cc(-c3ccc4cc(C#N)cnn34)ncc2C(=O)NC[C@@H](F)C(C)(C)O)CC1` [Example 168, (1S,4s)-4-((2-(3-cyano-pyrrolo[1,2-b]pyridazin-7-yl)-5-(((R)-2-fluoro-3-hydroxy-3-methylbutyl)carbamoyl)pyridin-4-yl)amino)cyclohexyl methylcarbamate], for which the 50% effective concentration (EC50) with TNFα is > 10000 nM. It took 1000 nM to reach half-maximal inhibition against IRAK4 enzyme (IC50).

Regarding `CC(C)(O)[C@H](F)CNC(=O)c1cnc(-c2ccc3cc(C#N)cnn23)cc1N[C@H]1C[C@H](O)C1` [Example 169, 6-(3-cyanopyrrolo[1,2-b]pyridazin-7-yl)-N-((R)-2-fluoro-3-hydroxy-3-methylbutyl)-4-(((1r,3R)-3-hydroxycyclobutyl)amino) nicotinamide], the 50% effective concentration (EC50) with TNFα was > 10000 nM. The 50% inhibitory concentration (IC50) against IRAK4 enzyme is 183 nM.

As to `CC(C)(O)[C@H](F)CNC(=O)c1cnc(-c2ccc3cc(C#N)cnn23)cc1NCc1cccnc1` [Example 170, (R)-6-(3-cyanopyrrolo[1,2-b]pyridazin-7-yl)-N-(2-fluoro-3-hydroxy-3-methylbutyl)-4-((pyridin-3-ylmethyl)amino) nicotinamide], the EC50 in the test on TNFα worked out at 217 nM. In addition, the half-inhibitory concentration (IC50) at IRAK4 enzyme came to 3 nM.

On to `CC(C)(O)[C@H](F)CNC(=O)c1cnc(-c2ccc3cc(C#N)cnn23)cc1NCc1ccccn1` [Example 171, (R)-6-(3-cyanopyrrolo[1,2-b]pyridazin-7-yl)-N-(2-fluoro-3-hydroxy-3-methylbutyl)-4-((pyridin-2-ylmethyl)amino) nicotinamide], for which, in the test on TNFα, the EC50 amounted to 382 nM. In addition, the concentration for half-maximal inhibition (IC50) against IRAK4 enzyme came out at 6 nM.

In the case of `CC(C)(O)[C@H](F)CNC(=O)c1cnc(-c2ccc3cc(C#N)cnn23)cc1Nc1ccc(-c2cn[nH]c2)nc1` [Example 172, (R)-4-((6-(1H-pyrazol-4-yl)pyridin-3-yl)amino)-6-(3-cyanopyrrolo[1,2-b]pyridazin-7-yl)-N-(2-fluoro-3-hydroxy-3-methylbutyl) nicotinamide], the EC50 in the test on TNFα stood at 76 nM. The IC50 at IRAK4 enzyme was < 1 nM.

Regarding `CC(C)(O)[C@H](F)CNC(=O)c1cnc(-c2ccc3cc(C#N)cnn23)cc1NC1CCC(C(=O)N2CCOCC2)CC1` (stereo partly drawn) [Example 173, 6-(3-cyanopyrrolo[1,2-b]pyridazin-7-yl)-N-((R)-2-fluoro-3-hydroxy-3-methylbutyl)-4-(((1r,4R)-4-(morpholine-4-carbonyl)cyclohexyl)amino) nicotinamide], in the test with TNFα, the EC50 worked out at 148 nM. The molecule also showed an IC50 against IRAK4 enzyme of 2 nM.

`CC(C)(O)[C@H](F)CNC(=O)c1cnc(-c2ccc3cc(C#N)cnn23)cc1NC1CCC(C(=O)N2CC(F)(F)C2)CC1` (stereo partly drawn) [Example 174, 6-(3-cyanopyrrolo[1,2-b]pyridazin-7-yl)-4-(((1r,4R)-4-(3,3-difluoroazetidine-1-carbonyl)cyclohexyl)amino)-N-((R)-2-fluoro-3-hydroxy-3-methylbutyl)nicotinamide]: the EC50 in the test with TNFα is 92 nM. In addition, the half-maximal inhibitory concentration (IC50) against IRAK4 enzyme is 1 nM.
